This is an account of results in patent US20250073303A1, “TDP-43 Interference Peptides, Methods, and Uses Thereof” (The University of British Columbia, priority 2022, published 2025).

The test system of test [1] is mice with LPS plus sciatic nerve axotomy. Briefly: LPS (5 mg/kg) plus sciatic nerve axotomy in mice: Fluoro Jade C neurodegeneration staining. The test is classed as in vivo, mouse. The following applies: 20 mg/kg daily i.p., day 7. The protocol:
FIG. 14: Example peptide D prevents neurodegeneration in ventral horn of spinal cord of mice with LPS plus sciatic nerve axotomy. Mice underwent LPS administration (5 mg/kg, i.p.) plus sciatic nerve axotomy on day 0 and tissues were collected and fixed on day 7 after the surgical procedure. Fluoro Jade (neurodegeneration marker) staining of ventral horn of spinal cord of mice in each indicated treatment group (upper panel) and counterstained with DAPI (lower panel). 20 mg/kg of peptide D was injected daily through i.p. route.
Neurodegeneration in the lumbar spinal cord of mice 7 days after administration of LPS plus surgery was then evaluated using Fluoro Jade C staining. Animals were divided into two peptide D treatment groups. In one group, peptide D administration started on the day of surgery, and in the other group, peptide D treatment started at 3 days post-surgery when the TDP-43 proteinopathies were at their maximum.

Test [2] concerns the target T1, TDP-43 (Mus musculus, UniProt Q921F2). The experiment in a line: LPS (1 mg/kg daily, 7 days) plus sciatic nerve axotomy in mice: TDP-43 aggregation by western blotting. In kind it is in vivo. Also noted: from tissue; host or cells: ventral lumbosacral spinal cord of mice, axotomy side. The following applies: LPS 1 mg/kg daily i.p. for 7 days plus axotomy; 20 mg/kg i.p.; vs control mice. The protocol: FIG. 17: Example peptide D reduces TDP-43 aggregates in lumbar spinal cord of mice with sciatic nerve axotomy and 7 days of LPS administration. Mice underwent sciatic nerve axotomy (day 0) and LPS (1 mg/kg, daily, i.p.) administration for 7 days (days 0-7). TDP-43 aggregation in lumbar spinal cord was evaluated by western blotting.
Since LPS causes systematic inflammation, microglia activation in ventral horn of spinal cord was first detected by staining with an Iba-1 antibody. […] In this setting, motor neuron loss in the lower limb motoneuron group in L5/6 of spinal cord was observed, as confirmed by staining with ChAT and NeuN antibodies. […] TDP-43 and phosphoTDP-43 insolubility in lumbar spinal cord was also confirmed by western blotting.
For orientation: In western blotting, separated proteins are transferred to a membrane and probed.

The test system of the next test is SH-SY5Y cells. The experiment in a line: Stress granule (TIA-1) numbers in SH-SY5Y cells with sodium arsenite. The test is classed as cell-based, human. The conditions noted are these: 1 mM sodium arsenite 1 hour, TIA-1 staining, vs scramble.
The target of test [3] is T1, TDP-43. The experiment in a line: Sodium arsenite induced TDP-43 and phosphoTDP43 aggregates in HL-1 cells. The test is classed as cell-based. Also noted: endogenous in cells; host or cells: HL-1 cells (cardiomyocytes). The following applies: 0.05 mM sodium arsenite 16 hours. The protocol: FIG. 12. Example peptide D reduces TDP-43 and phosphoTDP43 aggregates in HL-1 cells following sodium arsenite treatment. Western blot analysis of protein expression (TDP-43, phosphoTDP-43, PARP and actin) in either soluble or insoluble fractions of HL-1 cells with 16 h treatment of sodium arsenite (0.05 mM).
In order to evaluate the function of example peptide D on alleviation of TDP-43 proteinopathies in cardiomyocytes, 0.05 mM of sodium arsenite was employed to treat HL-1 cells for 16 hours to induce TDP-43 and phosphoTDP43 aggregates. […] 20 μM of peptide D treatment in HL-1 cells under the same treatment conditions reduced insoluble aggregates of TDP-43 and phosphoTDP-43.

T1 sequence (Q921F2 whole entry): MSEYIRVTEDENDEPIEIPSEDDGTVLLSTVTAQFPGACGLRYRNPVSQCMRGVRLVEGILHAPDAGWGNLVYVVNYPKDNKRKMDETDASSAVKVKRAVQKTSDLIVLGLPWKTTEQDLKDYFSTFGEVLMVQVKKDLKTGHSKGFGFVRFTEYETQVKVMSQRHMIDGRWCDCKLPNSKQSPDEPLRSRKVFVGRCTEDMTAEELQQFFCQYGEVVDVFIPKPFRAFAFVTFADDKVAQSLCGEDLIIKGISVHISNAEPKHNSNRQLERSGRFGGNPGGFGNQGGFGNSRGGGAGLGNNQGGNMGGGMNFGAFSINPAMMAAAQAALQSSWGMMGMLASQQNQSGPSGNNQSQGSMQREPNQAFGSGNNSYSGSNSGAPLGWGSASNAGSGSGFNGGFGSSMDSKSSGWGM

Consider “peptide D: candidate peptide from a CK-1δ binding region for TDP-43, truncated HIV-1 TAT domain added at the N-terminal (YGRKKRRQRRRGFSYDYVFDWNMLK)”, for which the “neurodegeneration in the ventral horn of spinal cord (Fluoro Jade C)” value in test [1] (administration started on the day of surgery) and in test [1] (treatment started at 3 days post-surgery) was “less neurodegeneration” in each case. Moreover, in the test with TDP-43 [2], the “TDP-43 aggregation in lumbar spinal cord” value is recorded as “reduced”. The “number of stress granules (SGs) induced by sodium arsenite” value in the test on SH-SY5Y cells was “reduced”. For the same substance, the “insoluble aggregates of TDP-43 and phosphoTDP-43” value with TDP-43 [3] (20 μM peptide) is listed as “reduced”. The PARP cleavage product entry with TDP-43 [3] (treated vs untreated cells) is reported as “reduced”.
